# Laboratory results: patent US10004701B2, “Methods and compositions for treating infection” (UNIVERSITY OF ROCHESTER, priority 2012, dated 2018)
# Counter-ions that a name gives are not always drawn. Like-named read-outs stand apart in the source and are kept apart here.
# What was measured:
# Test in all cases: AK assay 384-well format, Prestwick library screening
# [1] = system: E. coli; assay type: cell-based, Escherichia coli; settings: 50 μM final drug concentration; for fold induction at 50 µM: Escherichia coli, 3 h
# [2] = system: E. faecium; assay type: cell-based, Enterococcus faecium; settings: 50 μM final drug concentration; for fold induction at 50 µM: Enterococcus faecium, 3 h
# [3] = system: S. aureus strain USA300-0114; assay type: cell-based, Staphylococcus aureus; settings: 50 μM final drug concentration; for fold induction at 50 µM: Staphylococcus aureus, USA300, 3 h
# [4] = system: A. baumannii strain 98-37-09; assay type: cell-based, Acinetobacter baumannii; settings: 50 μM final drug concentration; for fold induction at 50 µM: Acinetobacter baumannii, 983709, 3 h
# [5] = system: K. pneumoniae; assay type: cell-based, Klebsiella pneumoniae; settings: 50 μM final drug concentration; for fold induction at 50 µM: Klebsiella pneumoniae, 3 h
# [6] = system: E. cloacae; assay type: cell-based, Enterobacter cloacae; settings: 50 μM final drug concentration; for fold induction at 50 µM: Enterobacter cloacae, 3 h
# [7] = system: P. aeruginosa; assay type: cell-based, Pseudomonas aeruginosa; settings: 50 μM final drug concentration; for fold induction at 50 µM: Pseudomonas aeruginosa, 3 h
# [8] = planktonic E. coli, 384-well, cutoff for positive-scoring molecules 3-fold increase, read-out: AK-based Prestwick Library Screening Results: E. coli (increase in extracellular AK activity)
# [9] = planktonic E. faecium, 384-well, cutoff for positive-scoring molecules 3-fold increase, read-out: AK-based Prestwick Library Screening Results: E. faecium (increase in extracellular AK activity)
# [10] = planktonic S. aureus, 384-well, cutoff for positive-scoring molecules 3-fold increase, read-out: AK-based Prestwick Library Screening Results: S. aureus (increase in extracellular AK activity)
# [11] = planktonic A. baumannii, 384-well, cutoff for positive-scoring molecules 3-fold increase, read-out: AK-based Prestwick Library Screening Results: A. baumannii (increase in extracellular AK activity)
# [12] = planktonic K. pneumoniae, 384-well, cutoff for positive-scoring molecules 3-fold increase, read-out: AK-based Prestwick Library Screening Results: K. pneumoniae (increase in extracellular AK activity)
# [13] = planktonic E. cloacae, 384-well, cutoff for positive-scoring molecules 3-fold increase, read-out: AK-based Prestwick Library Screening Results: E. cloacae (increase in extracellular AK activity)
# [14] = planktonic P. aeruginosa, 384-well, cutoff for positive-scoring molecules 3-fold increase, read-out: AK-based Prestwick Library Screening Results: P. aeruginosa (increase in extracellular AK activity)
# [15] = cutoff for positive-scoring molecules 3-fold increase, read-out: AK-based Prestwick Library Screening Results, E. coli (fold increase in extracellular AK activity)
# [16] = cutoff for positive-scoring molecules 3-fold increase, read-out: AK-based Prestwick Library Screening Results, E. faecium (fold increase in extracellular AK activity)
# [17] = cutoff for positive-scoring molecules 3-fold increase, read-out: AK-based Prestwick Library Screening Results, S. aureus (fold increase in extracellular AK activity)
# [18] = cutoff for positive-scoring molecules 3-fold increase, read-out: AK-based Prestwick Library Screening Results, A. baumannii (fold increase in extracellular AK activity)
# [19] = cutoff for positive-scoring molecules 3-fold increase, read-out: AK-based Prestwick Library Screening Results, K. pneumoniae (fold increase in extracellular AK activity)
# [20] = cutoff for positive-scoring molecules 3-fold increase, read-out: AK-based Prestwick Library Screening Results, E. cloacae (fold increase in extracellular AK activity)
# [21] = cutoff for positive-scoring molecules 3-fold increase, read-out: AK-based Prestwick Library Screening Results, P. aeruginosa (fold increase in extracellular AK activity)
smiles,measurement,setting,value
"NC(N)=NOCC[C@H](N)C(=O)O.O.O=S(=O)(O)O [Canavanine sulfate monohydrate (L,+)]","AK-based Prestwick Library Screening Results, E. coli (fold increase in extracellular AK activity)","[1]; planktonic, […]",1.2
same,"AK-based Prestwick Library Screening Results, E. faecium (fold increase in extracellular AK activity)","[2]; planktonic, […]",1.1
same,"AK-based Prestwick Library Screening Results, S. aureus (fold increase in extracellular AK activity)","[3]; planktonic, […]",1.6
same,"AK-based Prestwick Library Screening Results, A. baumannii (fold increase in extracellular AK activity)","[4]; planktonic, […]",1.1
same,"AK-based Prestwick Library Screening Results, K. pneumoniae (fold increase in extracellular AK activity)","[5]; planktonic, […]",0.9
same,"AK-based Prestwick Library Screening Results, E. cloacae (fold increase in extracellular AK activity)","[6]; planktonic, […]",1.4
same,"AK-based Prestwick Library Screening Results, P. aeruginosa (fold increase in extracellular AK activity)","[7]; planktonic, […]",1.1
C[C@]12CCC(=O)C=C1C=C[C@@H]1[C@@H]2CC[C@@]2(C)[C@H]1CC[C@@]2(O)CCC(=O)O [Canrenoic acid potassium salt],fold induction at 50 µM,[1]; [8],1.4
same,fold induction at 50 µM,[2]; [9],1
same,fold induction at 50 µM,[3]; [10],1.1
same,fold induction at 50 µM,[4]; [11],1.5
same,fold induction at 50 µM,[5]; [12],0.9
same,fold induction at 50 µM,[6]; [13],1.2
same,fold induction at 50 µM,[7]; [14],1.3
C[C@@]12C(=O)OC(=O)[C@]1(C)[C@H]1CC[C@@H]2O1 [Cantharidin],fold induction at 50 µM,"[1]; planktonic, […], read-out: AK-based Prestwick Library Screening Results, E. coli (fold increase in extracellular AK activity)",0.6
same,fold induction at 50 µM,"[2]; planktonic, […], read-out: AK-based Prestwick Library Screening Results, E. faecium (fold increase in extracellular AK activity)",0.8
same,fold induction at 50 µM,"[3]; planktonic, […], read-out: AK-based Prestwick Library Screening Results, S. aureus (fold increase in extracellular AK activity)",0.5
same,fold induction at 50 µM,"[4]; planktonic, […], read-out: AK-based Prestwick Library Screening Results, A. baumannii (fold increase in extracellular AK activity)",0.5
same,fold induction at 50 µM,"[5]; planktonic, […], read-out: AK-based Prestwick Library Screening Results, K. pneumoniae (fold increase in extracellular AK activity)",0.6
same,fold induction at 50 µM,"[6]; planktonic, […], read-out: AK-based Prestwick Library Screening Results, E. cloacae (fold increase in extracellular AK activity)",0.6
same,fold induction at 50 µM,"[7]; planktonic, […], read-out: AK-based Prestwick Library Screening Results, P. aeruginosa (fold increase in extracellular AK activity)",0.5
COc1cc(CNC(=O)CCCC/C=C/C(C)C)ccc1O [Capsaicin],fold induction at 50 µM,[1]; [15],1.3
same,fold induction at 50 µM,[2]; [16],1.1
same,fold induction at 50 µM,[3]; [17],1.2
same,fold induction at 50 µM,[4]; [18],1.2
same,fold induction at 50 µM,[5]; [19],1
same,fold induction at 50 µM,[6]; [20],1.5
same,fold induction at 50 µM,[7]; [21],1.1
C[C@H](CS)C(=O)N1CCC[C@H]1C(=O)O [Captopril],fold induction at 50 µM,"[1]; 384-well format, cutoff for positive-scoring molecules 3-fold increase, read-out: AK-based Prestwick Library Screening Results, E. coli (increase in extracellular AK activity)",0.7
same,fold induction at 50 µM,"[2]; 384-well format, cutoff for positive-scoring molecules 3-fold increase, read-out: AK-based Prestwick Library Screening Results, E. faecium (increase in extracellular AK activity)",1
same,fold induction at 50 µM,"[3]; 384-well format, cutoff for positive-scoring molecules 3-fold increase, read-out: AK-based Prestwick Library Screening Results, S. aureus (increase in extracellular AK activity)",0.7
same,fold induction at 50 µM,"[4]; 384-well format, cutoff for positive-scoring molecules 3-fold increase, read-out: AK-based Prestwick Library Screening Results, A. baumannii (increase in extracellular AK activity)",0.8
same,fold induction at 50 µM,"[5]; 384-well format, cutoff for positive-scoring molecules 3-fold increase, read-out: AK-based Prestwick Library Screening Results, K. pneumoniae (increase in extracellular AK activity)",0.6
same,fold induction at 50 µM,"[6]; 384-well format, cutoff for positive-scoring molecules 3-fold increase, read-out: AK-based Prestwick Library Screening Results, E. cloacae (increase in extracellular AK activity)",0.8
same,fold induction at 50 µM,"[7]; 384-well format, cutoff for positive-scoring molecules 3-fold increase, read-out: AK-based Prestwick Library Screening Results, P. aeruginosa (increase in extracellular AK activity)",0.6
C[N+](C)(C)CCOC(N)=O [Carbachol],fold induction at 50 µM,[1]; [15],1.2
same,fold induction at 50 µM,[2]; [16],1.1
same,fold induction at 50 µM,[3]; [17],1.4
same,fold induction at 50 µM,[4]; [18],1.3
same,fold induction at 50 µM,[5]; [19],1.2
same,fold induction at 50 µM,[6]; [20],1.2
same,fold induction at 50 µM,[7]; [21],1.2
NC(=O)N1c2ccccc2C=Cc2ccccc21 [Carbamazepine],fold induction at 50 µM,[1]; [8],1
same,fold induction at 50 µM,[2]; [9],0.8
same,fold induction at 50 µM,[3]; [10],1
same,fold induction at 50 µM,[4]; [11],0.9
same,fold induction at 50 µM,[5]; [12],0.9
same,fold induction at 50 µM,[6]; [13],1.5
same,fold induction at 50 µM,[7]; [14],1
CC1(C)[C@@H](OC(=O)CCC(=O)O)CC[C@]2(C)[C@H]3C(=O)C=C4[C@@H]5C[C@@](C)(C(=O)O)CC[C@]5(C)CC[C@@]4(C)[C@]3(C)CC[C@@H]12 [Carbenoxolone disodium salt],fold induction at 50 µM,"[1]; planktonic, cutoff for positive-scoring molecules 3-fold increase, read-out: AK-based Prestwick Library Screening Results, E. coli (fold increase in extracellular AK activity)",0.8
same,fold induction at 50 µM,"[2]; planktonic, cutoff for positive-scoring molecules 3-fold increase, read-out: AK-based Prestwick Library Screening Results, E. faecium (fold increase in extracellular AK activity)",0.9
same,fold induction at 50 µM,"[3]; planktonic, cutoff for positive-scoring molecules 3-fold increase, read-out: AK-based Prestwick Library Screening Results, S. aureus (fold increase in extracellular AK activity)",1.6
same,fold induction at 50 µM,"[4]; planktonic, cutoff for positive-scoring molecules 3-fold increase, read-out: AK-based Prestwick Library Screening Results, A. baumannii (fold increase in extracellular AK activity)",1.1
same,fold induction at 50 µM,"[5]; planktonic, cutoff for positive-scoring molecules 3-fold increase, read-out: AK-based Prestwick Library Screening Results, K. pneumoniae (fold increase in extracellular AK activity)",0.7
same,fold induction at 50 µM,"[6]; planktonic, cutoff for positive-scoring molecules 3-fold increase, read-out: AK-based Prestwick Library Screening Results, E. cloacae (fold increase in extracellular AK activity)",1.4
same,fold induction at 50 µM,"[7]; planktonic, cutoff for positive-scoring molecules 3-fold increase, read-out: AK-based Prestwick Library Screening Results, P. aeruginosa (fold increase in extracellular AK activity)",0.9
CCN(CC)CCOCCOC(=O)C1(c2ccccc2)CCCC1 [Carbetapentane citrate],fold induction at 50 µM,"[1]; planktonic, cutoff for positive 3-fold increase, read-out: AK-based Prestwick Library Screening Results, E. coli (fold increase in extracellular AK activity)",1.4
same,fold induction at 50 µM,"[2]; planktonic, cutoff for positive 3-fold increase, read-out: AK-based Prestwick Library Screening Results, E. faecium (fold increase in extracellular AK activity)",1
same,fold induction at 50 µM,"[3]; planktonic, cutoff for positive 3-fold increase, read-out: AK-based Prestwick Library Screening Results, S. aureus (fold increase in extracellular AK activity)",1.1
same,fold induction at 50 µM,"[4]; planktonic, cutoff for positive 3-fold increase, read-out: AK-based Prestwick Library Screening Results, A. baumannii (fold increase in extracellular AK activity)",1.4
same,fold induction at 50 µM,"[5]; planktonic, cutoff for positive 3-fold increase, read-out: AK-based Prestwick Library Screening Results, K. pneumoniae (fold increase in extracellular AK activity)",1
same,fold induction at 50 µM,"[6]; planktonic, cutoff for positive 3-fold increase, read-out: AK-based Prestwick Library Screening Results, E. cloacae (fold increase in extracellular AK activity)",1.4
same,fold induction at 50 µM,"[7]; planktonic, cutoff for positive 3-fold increase, read-out: AK-based Prestwick Library Screening Results, P. aeruginosa (fold increase in extracellular AK activity)",1.2
